Measured values published in paper PMC10442743 (Dalton Transactions (Cambridge, England : 2003), 2023).
Where two headings read alike, the source gives them in different places.

Experiments:
[1] = Molar conductivity in acetonitrile; format: physicochemical; conditions: 1 mM in acetonitrile, 25 °C
Description: The molar conductivity (ΛM, reported as S·cm2·mol–1) of solutions of 11CA in acetonitrile (1 mM) were measured in a Radiometer Copenhagen CDM92 equipped with a conductivity cell CDC641T glass platinum electrode at room temperature (25 °C). The conductivity of the pure solvent was used as standard controls.
Table S3. Solubility in water at 25 °C, n-octanol/water partition coefficient and molar conductivity of the 11CA. * below limit of detection = 5 ppt.

ct-DNA = experiment: Competitive DNA binding assay with fluorescent probes (DAPI, MG, PI)
Description: From the obtained fluorescence data, apparent DNA binding constants, Kapp, were calculated according to the competitive binding model described by Tse and Boger.[66]
Emission intensity measurements were performed using a SpectraMax M5e reader at room temperature. A 50 μM (bp) of ct-DNA was pre-incubated with the groove binding agents (MG and DAPI) (2 μM) and the intercalating agent propidium iodide (2 μM) for 30 min at 37 °C, to allow full interaction of the dyes into the ctDNA. Increasing amounts of 11Cl (0–100 μM) were added to this mixture and the final samples were incubated for 24 h at 37 °C. After incubation, the emission spectra were recorded at excitations of 633, 358, and 535 nm for the measurements of MG, DAPI, and PI, respectively. Quenching parameters were obtained by applying the Stern–Volmer equation (eqn (2)). The apparent binding constants, Kapp, were calculated according to the competitive binding model described by Tse and Boger[66] using eqn (4):[90]4 Kprobe[probe] = Kappc50where Kprobe is the binding constant of the probe, 9 × 10^5 and 5 × 10^6 M^−1 for MG[91] and DAPI,[92] respectively; [probe] is the concentration of probe used, 10 μM for both MG and DAPI; and c50 is the complex concentration when the fluorescence intensity of the probe is 50%. This value is obtained from the plot F0/F vs. [Q] when F0/F = 2.

L929 = experiment: MTT cytotoxicity assay, L929 fibroblasts (and selectivity index); format: cell-based, mouse; conditions: for SI (selectivity index): IC50 L929 divided by average IC50 of the breast cancer cell lines; for IC50: MTT
Description: The cytotoxicity of 1–11CA was assessed against human breast cancer MCF-7 and MDA-MB-231 cells, and non-tumorigenic adherent mouse fibroblast connective tissue L929 cells using the MTT assay after 24 and 72 h (Tables S5 ^† and Table 1, respectively).
Then, necessary dilutions were made using the supplement DMEM, to prepare the range of tested concentrations. Since DMSO was used to solubilize the compounds, a supplemented DMEM + DMSO (at the same percentage as in the sequential dilutions) was considered as a control in the 3-[4,5-dimetylthiazole-2-yl]-2,5-diphenyltetrazolium bromide (MTT) assay.
L929, MCF-7, and MDA-MB-231 cell lines were cultured in DMEM supplemented with 10% (v/v) FBS and 1% (v/v) of penicillin–streptomycin. The cells were incubated in a humidified chamber at 37 °C under saturated air with a 5% CO2 atmosphere. Cells were passed at 80%–90% of confluency with 0.25% (w/v) trypsin and the cell culture media was changed every 2–3 days.
The compounds were tested on two breast cancer cell lines (MCF-7 and MDA-MB-231) and L929 fibroblasts, used as a reference for the safety evaluation according to ISO 10993-1:2009 “Biological evaluation of medical devices”. Cells were seeded on sterile 96-well plates at 50 000 cells per well (L929) and 20 000 cells per well (MCF-7 and MDA-MB-231) in supplemented DMEM medium (100 μL) for 24 h. The culture medium was removed and new media containing different concentrations of the compounds (0–1000 μM) was added to the wells (100 μL). Control cells were incubated under the same conditions in the absence of a compound. Cells were incubated for 24 and 72 h under the same conditions described above. Then, the medium was removed, and the cells were incubated with 3-(4,5-dimethylthiazol-2-yl)-2,5-diphenyltetrazolium bromide (MTT; 0.5 mg mL^−1) for 3 h. After this time, the medium was removed, and formazan crystals were solubilized with DMSO (100 μL per well). The absorbance in each well was read on a SynergyTM HT Multimode microplate reader (BioTek Instruments; Winooski, VT, USA) at 570 and 630 nm (for background correction), and the cell viability was calculated according to the following equation (eqn (1)):1 [drawing 3] where OD570(sample) and OD630(sample) are the optical densities of the solutions containing the compounds and OD570(control) and OD630(control) are controls without compound.
Each apoptosis value determination represents the mean ± standard deviation of 2 independent assays. The IC50 values were obtained using GraphPad Prism software and ANOVA (analysis of variance) was performed to determine the statistical difference between the IC50 values of different cell lines.

[2] = test system: 14-mer ssDNA 5′–3′ (ATACATGGTACATA); conditions: 3 : 1 ratio, 37 °C, 24 h
Description: (§1) Tandem mass spectrometry was used to investigate the binding mode interaction of 11Cl with single- (ss) and double-strand (ds) DNA oligomers.[77,78]
(§2) 11Cl was incubated with 14-mer ssDNA 5′–3′ ([…]) and 6-mer dsDNA 5′–3′ (AGGCAG) in a 3 : 1 ratio at 37 °C in MilliQ water. After 24 h the solution was centrifuged with an Amicon® Ultra 0.5 mL centrifugal filter 3 kDa MWCO to remove the unreacted metal complex and excess salts.

[3] = test system: 6-mer dsDNA 5′–3′ (AGGCAG); conditions: 3 : 1 ratio, 37 °C, 24 h
Description: as §1, §2

ctDNA = experiment: Circular dichroism / induced circular dichroism with calf thymus DNA
Description: Calf thymus (ct) DNA (Merck®) was used to perform the circular dichroism assay to detect conformational changes in the ctDNA induced by the compounds. CD spectral data was collected on a Chirascan™ V100 (Applied Photophysics) spectropolarimeter equipped with a large area Avalanche photodiodes detector and computer-controlled thermoelectrical cell holder using a 1 cm path length quartz cuvette. CD spectra of ctDNA in the absence and presence of different concentrations of 11Cl were recorded at wavelengths ranging from 320 to 190 nm under constant nitrogen flush at 25 °C. For each CD spectrum, the number of scans was set to 5, and spectral data were collected at 0.1 ms intervals. Additionally, methyl green (MG) and 4′,6-diamidino-2-phenylindole (DAPI), and propidium iodide (PI) were analyzed as minor and major groove binders and as an intercalator, respectively, to help identify the binding mode of 11Cl to DNA. Samples were prepared in 10 mM Tris-HCl buffer (pH 7.6) with 1 mM EDTA. The concentration of ctDNA was fixed at 100 μM (concerning base pairs) and the ctDNA to 11Cl ratio was varied between 0 and 1. The samples were incubated for 24 h at 37 °C and then analyzed in the CD spectropolarimeter.

[4] = Solubility in water (ICP-MS); conditions: 25 °C, limit of detection = 5 ppt
Description: sonication, the mixtures were stirred at 25 °C for 1 h. The saturated solutions were filtered
to remove any insoluble solids, dissolved in 0.5 mL of MilliQ water, and analyzed using
ICP-MS. Samples were submitted to acidic digestion with 2 mL of concentrated HNO3
(DigiPREP Jr. 15ml, 40 Pos, SCP Science). The digestion program was the following: 15
min to heat to 100°C and keep at 100°C for 60 min. After the digestion, the sample
volumes were precisely adjusted to 5 mL with MilliQ water. Samples were further diluted
30 times with 2% HNO3 solution and their Ru content was analyzed by ICP-MS using
standard mode on NexIon 350 D ICP-MS instrument (PerkinElmer). Yttrium was added
as an internal standard at a concentration of 2 ppb to all the solution and Ru quantitation
was performed using an external calibration curve with standards in the 0.05-50 ppb
range. All measurements were performed in triplicates.

pBR322 DNA = test system: pBR322 DNA
Description: The interaction of 11Cl with plasmid DNA was also assessed by visualizing the relaxation of the plasmid using agarose gel electrophoresis (Fig. 4). Different concentrations of the 11Cl were incubated with pBR322 DNA at 37 °C for 24 h and then analyzed by gel electrophoresis (Fig. 4).
Assays were performed using 1.2% (w/v) agarose gels. A plasmid pBR322 DNA was purchased from Thermofisher Scientific® at 0.5 μg μL^−1 concentration in phosphate buffer 50 mM (pH 7.4). A 20 μL portion containing 0.125 μg μL^−1 of DNA in 10 mM Tris-HCl (pH 7.6) and 1 mM EDTA was incubated with increasing volumes of the stock solution of 11Cl (1 mM in DMSO) at ri values ranging from 0.05 to 0.5 (ri = [complex]/[no. nucleotide]). […] 20 μL of the sample was loaded in the agarose gel (1.2% w/v), and electrophoresis was carried out for a period of 100 min at 40 V in TAE 1× (Tris-acetate/EDTA) buffer. After electrophoresis, the gel was immersed in 200 mL of TAE 1× buffer containing 20 μL of a stock solution of SYBR safe for 30 min to stain the DNA. Then, the gel was washed with Mili Q water for 10 min and the stained gel was analyzed with a blue light in a Safe Imager™ 2.0 (Invitrogen).

[5] = complex concentration at 50% probe fluorescence, Table S9
[6] = ctDNA, DAPI competitive binding, Table S9
[7] = ctDNA, MG competitive binding, Table S9

Cc1ccccc1.[Cl-].[Cl][Ru+]([PH](c1ccccc1)(c1ccccc1)c1ccccc1)[PH](c1ccccc1)(c1ccccc1)c1ccccc1 [Compound 11Cl, [Ru(η^6-toluene)(PPh3)2Cl]Cl]
Conductivity (molar conductivity) [1]: 128 S·cm2/mol | C50, DAPI probe (ct-DNA; [5]): 1.1 10−4 M | C50, MG probe (ct-DNA; [5]): 2.1 10−4 M | KSV, DAPI probe (ct-DNA; [6]): 8.8 ± 0.6 103 M−1 | Kapp, DAPI probe (ct-DNA; [6]): 4.4 ± 0.3 105 M−1 | kq, DAPI probe (ct-DNA; [6]): 3.3 ± 0.3 1012 M−1 | KSV, MG probe (ct-DNA; [7]): 4.8 ± 0.7 103 M−1 | Kapp, MG probe (ct-DNA; [7]): 0.43 ± 0.04 105 M−1 | kq, MG probe (ct-DNA; [7]): 0.48 ± 0.07 1012 M−1 | quenching of PI (intercalator probe) fluorescence (ct-DNA; ctDNA, probe PI): no linear quenching was observed | preference towards the minor groove (ct-DNA; from difference of Kapp values): 10 fold | selectivity for the breast cancer cell lines compared to the healthy ones (L929): ~10 fold | SI (selectivity index) (L929; 24 h): 1.1 | IC50 (L929; 24 h exposure, read-out: IC50 (µM) (average ± standard deviation) 24 h L929): 5.3 ± 0.7 µM | SI (selectivity index) (L929; 72 h): 11.8 | IC50 (L929; 72 h exposure, read-out: IC50 (μM) (average ± standard deviation) 72 h L929): 0.87 ± 0.05 µM | identified ssDNA ions containing ruthenium [2]: 43% | identified dsDNA ions containing ruthenium [3]: 23% | CD band 210 nm, intensity change (ctDNA; DNA, 24 h, 37 °C): decrease in the ellipticity | CD band 210 nm, wavelength shift (ctDNA; DNA, 24 h, 37 °C): remained unchanged | CD band 220 nm (hydrogen bonding), intensity change (ctDNA; DNA, 24 h, 37 °C): increase in the circularity | CD band 220 nm (hydrogen bonding), wavelength shift (ctDNA; DNA, 24 h, 37 °C): small bathochromic (red) shift | CD band 246 nm (helicity), intensity change (ctDNA; DNA, 24 h, 37 °C): decrease in the ellipticity | CD band 246 nm (helicity), wavelength shift (ctDNA; DNA, 24 h, 37 °C): remained unchanged | CD band 268−280 nm (base-pair stacking interactions), intensity change (ctDNA; DNA, 24 h, 37 °C): decrease in the ellipticity | CD band 268−280 nm (base-pair stacking interactions), wavelength shift (ctDNA; DNA, 24 h, 37 °C): remained unchanged | decrease of the intensity of the ICD bands of DAPI (ctDNA; DNA–DAPI after treatment with 11Cl): 35% | decrease of the intensity of the ICD bands of MG (ctDNA; DNA–MG after treatment with 11Cl): 20% | Solubility (μM) [4]: 528 ± 88 µM | Solubility (μg/mL) [4]: 416 ± 70 µg/mL | stabilization of the linear form of plasmid DNA (pBR322 DNA; 37 °C, 24 h, ri 0.01–0.5): did not induce the stabilization of the linear form | precipitation of DNA (pBR322 DNA; all studied concentrations): no precipitation was observed | ri ratio from which alterations in the supercoiled structure (tailing, slight retardation) appear (pBR322 DNA; ri = [11Cl]/[DNA bp], 37 °C, 24 h): ≥ 0.2
